Measured values as given in ChEMBL document CHEMBL1201862, “PubChem BioAssay data set” (2004).
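Cultured in 96-well plates, cells were exposed to test compound for 48 hours across five concentrations. Abbreviation: GI50, concentration required for 50% inhibition of growth.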 Active and inactive are the calls of the source. Rule as the data show it: active = GI50 up to about 1.1 µM and inactive = higher.

Legend:
Assay in all cases: DTP human tumour cell line panel, 48 h
[1] = tested on: 786-0
[2] = tested on: A549
[3] = tested on: BT-549
[4] = tested on: Hs-578T
[5] = tested on: LOX IMVI
[6] = tested on: MDA-MB-231
[7] = tested on: Malme-3M
[8] = tested on: NCI-H226
[9] = tested on: OVCAR-3
[10] = tested on: SK-MEL-2
[11] = tested on: SK-MEL-5
[12] = tested on: SR
[13] = tested on: T47D
[14] = tested on: UACC-257
[15] = tested on: HCC 2998
[16] = tested on: HL-60
[17] = tested on: MDA-MB-435
[18] = tested on: NCI-H23
[19] = tested on: SF-539

SMILES | GI50 [1] | GI50 [2] | GI50 [3] | GI50 [4] | GI50 [5] | GI50 [6] | GI50 [7] | GI50 [8] | GI50 [9] | GI50 [10] | GI50 [11] | GI50 [12] | GI50 [13] | GI50 [14] | GI50 [15] | GI50 [16] | GI50 [17] | GI50 [18] | GI50 [19]
CC(C)(C)[Si](C)(C)OCC1OC(n2ccc(N)nc2=O)C(O[Si](C)(C)C(C)(C)C)C1O[Si](C)(C)C(C)(C)C (centres undefined) | 1.59 µM (inactive) | 3.44 µM (inactive) | 1.62 µM (inactive) | 2.55 µM (inactive) | 1.71 µM (inactive) | 10.8 µM (inactive) | 1.8 µM (inactive) | 1.36 µM (inactive) | 1.73 µM (inactive) | 2.07 µM (inactive) | 2.01 µM (inactive) | 2.73 µM (inactive) | 2.7 µM (inactive) | 3.33 µM (inactive) | – | – | – | – | –
CCCCCCCCC[C@@H]1C[C@@H]2CCC3C(C(=O)OCCCCNC(=O)OCc4ccccc4)=C(C)N=C(N1)N32 (some centres undefined) | 1.76 µM (inactive) | 4.57 µM (inactive) | 3.67 µM (inactive) | 2.51 µM (inactive) | 2.09 µM (inactive) | 2.28 µM (inactive) | – | 3.58 µM (inactive) | 4.04 µM (inactive) | 1.92 µM (inactive) | 1.59 µM (inactive) | – | 2.57 µM (inactive) | 3.27 µM (inactive) | 3.06 µM (inactive) | 1.98 µM (inactive) | 2.78 µM (inactive) | 2.56 µM (inactive) | 3.86 µM (inactive)
CC(=O)N1c2cc(/N=N/N(C)C)ccc2NC(=O)CC1C (centres undefined) | > 100 µM (inactive) | > 100 µM (inactive) | > 100 µM (inactive) | > 100 µM (inactive) | – | > 100 µM (inactive) | > 100 µM (inactive) | > 100 µM (inactive) | > 100 µM (inactive) | > 100 µM (inactive) | > 100 µM (inactive) | – | > 100 µM (inactive) | > 100 µM (inactive) | > 100 µM (inactive) | > 100 µM (inactive) | > 100 µM (inactive) | > 100 µM (inactive) | –
Cc1cc(-c2ccccc2)nc2oc(=O)n(C)c12 | 37.8 µM (inactive) | > 100 µM (inactive) | > 100 µM (inactive) | > 100 µM (inactive) | > 100 µM (inactive) | 64.9 µM (inactive) | > 100 µM (inactive) | > 100 µM (inactive) | > 100 µM (inactive) | 79.3 µM (inactive) | > 100 µM (inactive) | – | 94.6 µM (inactive) | > 100 µM (inactive) | > 100 µM (inactive) | > 100 µM (inactive) | > 100 µM (inactive) | 83.9 µM (inactive) | –
O=c1cc(N2CCCC2)[nH]c(=O)n1-c1ccc(F)cc1 | > 100 µM (inactive) | > 100 µM (inactive) | > 100 µM (inactive) | > 100 µM (inactive) | > 100 µM (inactive) | > 100 µM (inactive) | > 100 µM (inactive) | 20.3 µM (inactive) | > 100 µM (inactive) | > 100 µM (inactive) | – | – | > 100 µM (inactive) | > 100 µM (inactive) | > 100 µM (inactive) | > 100 µM (inactive) | > 100 µM (inactive) | > 100 µM (inactive) | > 100 µM (inactive)
C(=N\c1ccc(-c2nc3ccccc3s2)cc1)/c1cccs1 | 48.2 µM (inactive) | 57.7 µM (inactive) | 56.2 µM (inactive) | 41.7 µM (inactive) | 46.1 µM (inactive) | – | 68.5 µM (inactive) | 54.2 µM (inactive) | 42.5 µM (inactive) | 38.2 µM (inactive) | 30.4 µM (inactive) | 39.6 µM (inactive) | 22.8 µM (inactive) | 38.2 µM (inactive) | 34 µM (inactive) | < 0.01 µM (active) | 41.9 µM (inactive) | 54.3 µM (inactive) | 59.3 µM (inactive)
CNC(=O)N(CCC#N)[C@H]1CCCC[C@@H]1N(C(=O)NC)c1ccccc1 | > 100 µM (inactive) | > 100 µM (inactive) | > 100 µM (inactive) | – | > 100 µM (inactive) | > 100 µM (inactive) | > 100 µM (inactive) | > 100 µM (inactive) | > 100 µM (inactive) | > 100 µM (inactive) | > 100 µM (inactive) | > 100 µM (inactive) | > 100 µM (inactive) | > 100 µM (inactive) | > 100 µM (inactive) | – | > 100 µM (inactive) | > 100 µM (inactive) | > 100 µM (inactive)
O=C(Nc1cccc(F)c1)c1cc2ccc(O)cc2o/c1=N\c1ccccc1F | 4.99 µM (inactive) | 3.38 µM (inactive) | 2.13 µM (inactive) | 1.57 µM (inactive) | 2.96 µM (inactive) | – | 4.3 µM (inactive) | – | 3.81 µM (inactive) | 4.8 µM (inactive) | 2.2 µM (inactive) | 2.47 µM (inactive) | 3.38 µM (inactive) | 4.33 µM (inactive) | 9.59 µM (inactive) | 2.45 µM (inactive) | 3.89 µM (inactive) | 2.18 µM (inactive) | 7.43 µM (inactive)
CC(C)(C)COC(=O)C(C)(C)NC(=O)C(CC(=O)OCc1ccccc1)NC(=O)OCc1ccccc1 (centres undefined) | > 100 µM (inactive) | 29.7 µM (inactive) | – | 27.9 µM (inactive) | 43.5 µM (inactive) | 42.9 µM (inactive) | 29.6 µM (inactive) | 29.2 µM (inactive) | 41.4 µM (inactive) | 49 µM (inactive) | 11.1 µM (inactive) | 25.5 µM (inactive) | 20.2 µM (inactive) | 25.5 µM (inactive) | 35.3 µM (inactive) | 46.5 µM (inactive) | 25.8 µM (inactive) | 26.7 µM (inactive) | 25.1 µM (inactive)
CO/N=C/c1c(-c2ccc(Cl)cc2)c(/C=N/OC)n2c1sc1ccccc12 | > 100 µM (inactive) | > 100 µM (inactive) | > 100 µM (inactive) | > 100 µM (inactive) | > 100 µM (inactive) | > 100 µM (inactive) | > 100 µM (inactive) | – | > 100 µM (inactive) | > 100 µM (inactive) | > 100 µM (inactive) | – | 21.2 µM (inactive) | > 100 µM (inactive) | > 100 µM (inactive) | 32 µM (inactive) | > 100 µM (inactive) | > 100 µM (inactive) | –
O=C(NNC(=S)NC1CCCCC1)c1csc(NC(=S)NC2CCCCC2)n1 | 7.64 µM (inactive) | 7.89 µM (inactive) | 2.9 µM (inactive) | – | 4.9 µM (inactive) | 17.8 µM (inactive) | 11.2 µM (inactive) | 66.7 µM (inactive) | 4.04 µM (inactive) | 15.5 µM (inactive) | 2.01 µM (inactive) | 5.4 µM (inactive) | 13.1 µM (inactive) | 3.24 µM (inactive) | 3.12 µM (inactive) | > 100 µM (inactive) | 10.8 µM (inactive) | 10.4 µM (inactive) | 4.58 µM (inactive)
CCOC(=O)c1c[nH]c(C(=O)OCC)c1-c1cccn1-c1ccccc1 | 22.8 µM (inactive) | 26.6 µM (inactive) | 25.3 µM (inactive) | 9.64 µM (inactive) | 16.9 µM (inactive) | 28.6 µM (inactive) | 10.8 µM (inactive) | 15.1 µM (inactive) | 16.8 µM (inactive) | 14.5 µM (inactive) | 14.1 µM (inactive) | – | 28.1 µM (inactive) | 26.1 µM (inactive) | – | 18.4 µM (inactive) | 27.5 µM (inactive) | 28.5 µM (inactive) | –
NS(=O)(=O)c1ccc(NC(=S)N/C=C2\C(=O)Oc3ccccc3C2=O)cc1 | 40 µM (inactive) | 43 µM (inactive) | 34.7 µM (inactive) | 17.5 µM (inactive) | 33.6 µM (inactive) | 16 µM (inactive) | – | 12.6 µM (inactive) | 27.2 µM (inactive) | 15.3 µM (inactive) | 26.1 µM (inactive) | – | 41.9 µM (inactive) | 67.8 µM (inactive) | 34.8 µM (inactive) | 21.4 µM (inactive) | 43.5 µM (inactive) | 38.5 µM (inactive) | 44 µM (inactive)
CC(=O)CC1(OC(=O)C2C(C=C(C)C)C2(C)C)C(=O)Nc2ccccc21 (centres undefined) | > 100 µM (inactive) | > 100 µM (inactive) | – | > 100 µM (inactive) | > 100 µM (inactive) | > 100 µM (inactive) | > 100 µM (inactive) | > 100 µM (inactive) | 54.2 µM (inactive) | > 100 µM (inactive) | > 100 µM (inactive) | > 100 µM (inactive) | > 100 µM (inactive) | > 100 µM (inactive) | > 100 µM (inactive) | > 100 µM (inactive) | > 100 µM (inactive) | > 100 µM (inactive) | > 100 µM (inactive)
C[N+](C)(CCNc1ccc(NCC[N+](C)(C)Cc2ccc([N+](=O)[O-])cc2)c2c1C(=O)c1c(O)ccc(O)c1C2=O)Cc1ccc([N+](=O)[O-])cc1 | 8.41 µM (inactive) | 28.2 µM (inactive) | 26.5 µM (inactive) | > 50 µM (inactive) | 4.65 µM (inactive) | 2.65 µM (inactive) | 30 µM (inactive) | – | > 50 µM (inactive) | > 50 µM (inactive) | 15 µM (inactive) | – | > 50 µM (inactive) | > 50 µM (inactive) | > 50 µM (inactive) | > 50 µM (inactive) | > 50 µM (inactive) | > 50 µM (inactive) | 19.1 µM (inactive)
C[C@H](CS)C(=O)N1c2ccccc2C[C@H]1C(=O)O | > 100 µM (inactive) | > 100 µM (inactive) | > 100 µM (inactive) | > 100 µM (inactive) | – | > 100 µM (inactive) | – | > 100 µM (inactive) | > 100 µM (inactive) | > 100 µM (inactive) | > 100 µM (inactive) | > 100 µM (inactive) | 56 µM (inactive) | > 100 µM (inactive) | 37.5 µM (inactive) | > 100 µM (inactive) | – | > 100 µM (inactive) | > 100 µM (inactive)
